What was measured:
GTPase KRas [1] = molecular target: T1, GTPase KRas (Homo sapiens, UniProt P01116, G12C); experiment: Inhibition of KRAS G12C mutant in human NCI-H2030 cells; type: cell-based
GTPase KRas [2] = molecular target: T1, GTPase KRas; experiment: Inhibition of KRAS G12C mutant in human NCI-H23 cells; type: cell-based
[3] = system: von Hippel-Lindau disease tumor suppressor/GTPase KRas (Homo sapiens), P01116+P40337 [G12C]; experiment: PROTAC activity at VHL/KRAS G12C mutant in human NCI-H2030 cells assessed as induction of KRAS G12C degradation relative to control; type: cell-based
[4] = system: von Hippel-Lindau disease tumor suppressor/GTPase KRas (Homo sapiens), P01116+P40337 [G12C]; experiment: PROTAC activity at VHL/KRAS G12C mutant in human NCI-H23 cells assessed as induction of KRAS G12C degradation relative to control; type: cell-based
[5] = molecular target: T2, von Hippel-Lindau disease tumor suppressor/GTPase KRas (Homo sapiens, UniProt P01116+P40337, G12C); experiment: PROTAC activity at VHL/KRAS G12C mutant in human NCI-H2030 cells assessed as induction of KRAS G12C degradation; type: cell-based
[6] = molecular target: T2, von Hippel-Lindau disease tumor suppressor/GTPase KRas; experiment: PROTAC activity at VHL/KRAS G12C mutant in human NCI-H23 cells assessed as induction of KRAS G12C degradation; type: cell-based
GTPase KRas [7] = molecular target: T1, GTPase KRas; experiment: Inhibition of KRAS G12C mutant (unknown origin) by HTRF method
GTPase KRas [8] = molecular target: T1, GTPase KRas; experiment: Inhibition of KRAS G12C mutant in human HCC1171 cells; type: cell-based
NCI-H358 [9] = experiment: Antitumor activity against human NCI-H358 cells xenografted in Balb/c nude mouse assessed as tumor growth inhibition at 15 mg/kg measured after 27 days by vernier caliper based assay relative to control; type: functional; details: NCI-H358, 648 h, time 27 day, read-out: TGI
A-375 = experiment: Antiproliferative activity against human A-375 cells by CellTiter-Glo assay; type: functional, cell-based
MIA PaCa-2 = experiment: Antiproliferative activity against human MIA PaCa-2 cells harbouring KRAS G12C mutant by CellTiter-Glo assay; type: functional, cell-based
NCI-H358 [10] = experiment: Antitumor activity against human NCI-H358 cells xenografted in Balb/c nude mouse assessed as tumor growth inhibition at 5 mg/kg measured after 27 days by vernier caliper based assay relative to control; type: functional; details: NCI-H358, 648 h, time 27 day, read-out: TGI
[11] = system: GTPase KRas (Homo sapiens), P01116 [G12C]; experiment: Inhibition of his tagged KRAS G12C mutant (1 to 169 residues) (unknown origin) by RapidFire mass spectrometric analysis; details: concentration not given here
[12] = system: GTPase KRas (Homo sapiens), P01116 [G12C]; experiment: Binding affinity to KRAS G12C mutant (unknown origin) measured after 3 mins
[13] = Stability in monkey whole blood assessed as half life by LC/MS/MS analysis; type: ADME, tissue-based, Macaca mulatta; details: rhesus monkey
[14] = Stability in dog whole blood assessed as half life by LC/MS/MS analysis; type: ADME, tissue-based, Canis lupus familiaris
[15] = system: GTPase KRas (Homo sapiens), P01116 [G12C]; experiment: Inhibition of KRAS G12C mutant (1 to 169 residues) (unknown origin) at 5 uM incubated for 1 min by Mass spectrometry reactivity assay
[16] = system: GTPase KRas (Homo sapiens), P01116 [G12C]; experiment: Inhibition of KRAS G12C mutant (unknown origin) at 10 uM relative to control
GTPase KRas [17] = molecular target: T1, GTPase KRas; experiment: Inhibition of KRAS G12C mutant in human NCI-H358 cells measured after 6 hrs; type: cell-based
GTPase KRas [18] = molecular target: T1, GTPase KRas; experiment: Inhibition of KRAS G12C mutant in human MIA PaCa-2 cells measured after 6 hrs; type: cell-based
NCI-H358 [19] = experiment: Antiproliferative activity against human NCI-H358 cells harbouring KRAS G12C mutant by CellTiter-Glo assay; type: functional, cell-based
[20] = system: GTPase KRas (Homo sapiens), P01116 [G12C]; experiment: Inhibition of KRAS G12C mutant (unknown origin) at 5 uM relative to control
[21] = system: GTPase KRas (Homo sapiens), P01116 [G12C]; experiment: Inhibition of KRAS G12C mutant (unknown origin); details: concentration not given here

Q: Which EC50 (GTPase KRas [1]) does the source give for `C=C(F)C(=O)N1CCN(c2nc(CO[C@@H]3CCCN3CCC(=O)NCCOCCOCCC(=O)N[C@@H](C(=O)N3[C@H](O)CC[C@H]3C(=O)NCc3ccc(-c4scnc4C)cc3)C(C)(C)C)nc3c2CCN(c2cccc4cccc(Cl)c24)C3)C[C@@H]1CC#N` here?
A: > 10000 nM

Q: And the EC50 (GTPase KRas [2])?
A: 1300 nM

Q: What about the Emax [3] of the same compound?
A: 30%

Q: What does the source list for `C=C(F)C(=O)N1CCN(c2nc(CO[C@@H]3CCCN3CCCOCCC(=O)N[C@@H](C(=O)C3N[C@H](C(=O)NCc4ccc(-c5scnc5C)cc4)C[C@H]3O)C(C)(C)C)nc3c2CCN(c2cccc4cccc(Cl)c24)C3)C[C@@H]1CC#N` (stereo partly drawn)?
A: Emax [4]: 90%; EC50 (GTPase KRas [1]): 3800 nM; EC50 (GTPase KRas [2]): 2900 nM; DC50 [5]: 590 nM; Emax [3]: 75%; DC50 [6]: 760 nM

Q: For `C=CC(=O)N1CCN(c2nc(OC[C@@H]3CCCN3C)nc3c2C[C@@H](C)C(c2cc(O)cc4ccccc24)C3)[C@@H](C)C1` (stereo partly drawn), which IC50 (GTPase KRas [7]) is on record?
A: < 10 nM

Q: And the IC50 (GTPase KRas [8])?
A: < 6 nM

Q: With `C=CC(=O)N1CCN(c2ncnc3c(=O)n(-c4c(N)c(Cl)cc(Cl)c4F)c(C(F)(F)F)cc23)CC1` as the compound, how does the inhibition in vivo at 15 mg/kg (NCI-H358 [9]) read?
A: 116%

Q: And the IC50 (A-375)?
A: 7320 nM

Q: What about the IC50 (MIA PaCa-2) of the same compound?
A: 70000 nM

Q: What about the inhibition in vivo at 5 mg/kg (NCI-H358 [10]) of the same compound?
A: 107%

Q: Which inhibition [11] does the source give for `C=CC(=O)N1CCN(c2c3c(nc4c(F)c(-c5c(O)cccc5F)c(Cl)cc24)NC(=O)NC3)CC1` here?
A: > 50%

Q: For `C=CC(=O)N1C[C@H](C)N(c2nc(N3CC(N(C)C)C3)nc3c(F)c(-c4c(C)ccc5cn[nH]c45)c(Cl)cc23)C[C@H]1C`, which Activity [12] is on record?
A: > 90%

Q: And the half-life [13]?
A: 3.9 h

Q: What about the half-life [14] of the same compound?
A: 5.95 h

Q: Which inhibition [15] does the source give for `C=CC(=O)N1CCN(c2nc(O[C@@H]3CN(C)C[C@H]3OC)nc3c(Oc4c(Cl)c(Cl)cc5[nH]ncc45)nc(Cl)cc23)CC1` here?
A: 82%

Q: With `C=CC(=O)N1CCN(c2ncnc3c(F)c(-c4c(O)cccc4F)c(Cl)cc23)CC1` as the compound, how does the inhibition in vivo at 15 mg/kg (NCI-H358 [9]) read?
A: 52%

Q: For `C=CC(=O)N1CCN(c2nc(N3CC(N(C)C)C3)nc3c2C[C@@H](C)[C@H](c2c(Cl)c(C)cc4[nH]ccc24)C3)C[C@H]1C`, which inhibition [16] is on record?
A: 80%

Q: What about the IC50 (GTPase KRas [17]) of the same compound?
A: 64 nM

Q: And the IC50 (GTPase KRas [18])?
A: 60 nM

Q: For `C=CC(=O)N1CCN(c2nc(Oc3cccc4c3CCN(C)C4)nc3c(Oc4c(Cl)c(F)cc5[nH]ncc45)nccc23)CC1`, which inhibition [15] is on record?
A: 80%

Q: Which results are given for `C=CC(=O)N1CCN(c2ncnc3c(=O)n(-c4c(O)cccc4F)c(C(F)(F)F)cc23)CC1`?
A: IC50 (NCI-H358 [19]): 5360 nM; IC50 (A-375): > 50000 nM; IC50 (MIA PaCa-2): 6480 nM

Q: Which Activity [12] does the source give for `C=CC(=O)N1CCN(c2nc(OCCN3CC(F)(F)C3)nc3c(F)c(-c4c(O)cccc4F)c(Cl)cc23)CC1` here?
A: > 90%

Q: And the half-life [13]?
A: 7.8 h

Q: What about the half-life [14] of the same compound?
A: 3 h

Q: Which Activity [12] does the source give for `C=CC(=O)N1C[C@H](C)N(c2nc(OCCN3CC(F)(F)C3)nc3c(F)c(-c4c(O)cccc4F)c(Cl)cc23)C[C@H]1C` here?
A: > 90%

Q: What about the half-life [13] of the same compound?
A: 7.8 h

Q: And the half-life [14]?
A: 3 h

Q: With `C=CC(=O)N1CCN(c2nc(N3CC(N(C)C)C3)nc3c2C[C@@H](C)C(c2c(C)c(Cl)cc4[nH]ncc24)C3)CC1` (stereo partly drawn) as the compound, how does the IC50 (GTPase KRas [17]) read?
A: 102 nM

Q: What about the inhibition [20] of the same compound?
A: 78%

Q: What about the IC50 (GTPase KRas [18]) of the same compound?
A: 68 nM

Q: With `C=CC(=O)N1CCN(c2nc(OCCN3CCCC3=O)nc3c(F)c(-c4c(O)cccc4F)c(Cl)cc23)CC1` as the compound, how does the inhibition [21] read?
A: > 90%

Source: ChEMBL document CHEMBL5523694, “Research progress on small molecule inhibitors targeting KRAS G12C with acrylamide structure and the strategies for solving KRAS inhibitor resistance” (Bioorg Med Chem, 2024)
